A word on the IC50: it is the concentration that gives 50% inhibition. The low end stands for greater potency, the high end for weaker potency.

Each structure is given as a SMILES string.

The results in this text go back to US20260234130A1, “EP2 Antagonist Compounds” (Reservoir Neuroscience, Inc., priority 2022, published 2026).

In this experiment the target is T1, EP2 receptor (Homo sapiens, UniProt P43116).
T1 construct: expressed in transfected cells; host or cells: CHO-K1 cells (ATCC), transient transfection with FuGENE 6
The experiment can be described thus: EP2 potency assay (cAMP TR-FRET, LANCE Ultra cAMP kit) in transfected CHO-K1 cells stimulated with PGE2 at EC80. Conditions: EP2 antagonism, CHO-K1 cells expressing EP2, PGE2 at EC80. In kind it is cell-based. As to the method: Compound potency was measured using a cAMP TR-FRET assay. CHO-K1 cells (ATCC) were seeded at a density of 9.75×105 in 6 cm plates, and then on the following day cell media was changed to Opti-Mem I reduced serum media (Gibco), and transfected with a plasmid for expression of the EP2 receptor (the target receptor of interest), using the FuGENE 6 Transfection reagent (Promega). After 6 hours incubation, the cell media was replaced with F12 medium supplemented with 10% FBS and 100 U/ml Pen-Strep. 24 hours after transfection, cells were harvested and seeded at a density of 3000 cells/well in a 384 well plate to perform the cAMP assay, using the LANCE Ultra cAMP assay kit (PerkinElmer). For each test compound of interest, 10 nl/well of serially diluted test compound was added to each well, resulting in a range of 10 serially diluted compound concentrations from 10000 nM to 0.038 nM, with duplicate wells for each concentration. Plates were then centrifuged at 1000 rpm for 1 min, agitated at 600 rpm at R.T. for 2 min, and incubated at 25° C. for 5 min. The reference agonist, prostaglandin E2 (MCE), was added to each well at the appropriate concentration to reach its EC80 value. Plates were then centrifuged at 1000 rpm for 1 min, agitated at 600 rpm at R.T. for 2 min, and incubated at 25° C. for 30 min. To measure levels of cAMP, 5 μl/well of Eu-cAMP working solution and 5 μl/well of Ulight-anti-cAMP working solution were added to each well, and the plate was centrifuged at 1000 rpm for 1 min, agitated at 600 rpm at R.T. for 2 min, and incubated at 25° C. for 15 min. Levels of TR-FRET fluorescence were measured in each well using an EnVision microplate reader (excitation wavelength=337 nm and emission wavelength=615 and 665 nm). A dose-response curve was prepared by plotting percent inhibition for each compound concentration, and then IC50 was calculated by fitting a curve to the plotted values and extrapolating the IC50 concentration. […] Potency data is grouped into categories of AA (IC50<100 nM); A (IC50=100 to 500 nM); B (IC50=500 nM to […]); C (IC50=1 μM to 5 μM); and D (IC50>5 μM).

T1 sequence (P43116 whole entry): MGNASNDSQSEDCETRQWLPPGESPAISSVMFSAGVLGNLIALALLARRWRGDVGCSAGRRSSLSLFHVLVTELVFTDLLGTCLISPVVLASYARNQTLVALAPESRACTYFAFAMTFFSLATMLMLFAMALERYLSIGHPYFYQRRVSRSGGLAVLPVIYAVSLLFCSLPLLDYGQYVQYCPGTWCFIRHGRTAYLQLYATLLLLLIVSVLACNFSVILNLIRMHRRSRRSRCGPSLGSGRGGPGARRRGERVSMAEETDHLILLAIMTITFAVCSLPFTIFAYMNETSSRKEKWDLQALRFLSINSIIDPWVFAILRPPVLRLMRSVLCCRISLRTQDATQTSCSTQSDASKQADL

Take `COc1ccc(C(N2CCC(COc3ccc(-c4ccc(C#N)cc4)cc3)(C(=O)O)C2)C(F)(F)F)cc1` (stereo not shown) [I-2, 3-(((4′-cyano-[1,1′-biphenyl]-4-yl)oxy)methyl)-1-(2,2,2-trifluoro-1-(4-methoxyphenyl)ethyl)pyrrolidine-3-carboxylic acid]: the half-maximal inhibitory concentration (IC50) (Table (IV)) was > 5000 nM.
On the same count and under the same terms, the same measure for `COc1ccc(C(=O)N2CCC(COc3ccc(C45CC(C#N)(C4)C5)cc3)(C(=O)O)C2)cc1` (stereo not shown) [I-6, 3-((4-(3-cyanobicyclo[1.1.1]pentan-1-yl)phenoxy)methyl)-1-(4-methoxybenzoyl)pyrrolidine-3-carboxylic acid]: < 100 nM.
In turn, `COc1ccc(C(=O)N2CCC(COc3ccc(C45CC(C4)C5)cc3)(C(=O)O)C2)cc1` (stereo not shown) [I-7, 3-((4-(bicyclo[1.1.1]pentan-1-yl)phenoxy)methyl)-1-(4-methoxybenzoyl)pyrrolidine-3-carboxylic acid] showed a 50% inhibitory concentration (IC50) (Table (IV)) of 100 to 500 nM.
Compound `COc1ccc(C(=O)N2CCC(COc3ccc(C45CC(C(N)=O)(C4)C5)cc3)(C(=O)O)C2)cc1` (stereo not shown) [I-8, 3-(4-{3-carbamoylbicyclo[1.1.1]pentan-1-yl}phenoxymethyl)-1-(4-methoxybenzoyl)pyrrolidine-3-carboxylic acid] showed a concentration for half-maximal inhibition (IC50) (Table (IV)) of 100 to 500 nM.
As to `COc1ccc(C(=O)N2CCC(COc3ccc(-c4ccc(C#N)cc4)cc3)(S(C)(=N)=O)C2)cc1` (stereo not shown) [I-9, 4′-((1-(4-methoxybenzoyl)-3-(S-methylsulfonimidoyl)pyrrolidin-3-yl)methoxy)-[1,1′-biphenyl]-4-carbonitrile], the IC50 (Table (IV)) is > 5000 nM.
For the compound `COc1ccc(C(=O)N2CCC(COc3ccc(-c4ccc(C#N)cc4)cc3)(S(=O)(=O)NS(C)(=O)=O)C2)cc1` (stereo not shown) [I-10, 3-(((4′-cyano-[1,1′-biphenyl]-4-yl)oxy)methyl)-1-(4-methoxybenzoyl)-N-(methylsulfonyl)pyrrolidine-3-sulfonamide], the half-inhibitory concentration (IC50) (Table (IV)) is > 5000 nM.
On the same count and under the same terms, the same measure for `COc1ccc(C(=O)N2CCC(COc3ccc(C45CC(C(=O)O)(C4)C5)cc3)(C(=O)O)C2)cc1` (stereo not shown) [I-11, 3-((4-(3-carboxybicyclo[1.1.1]pentan-1-yl)phenoxy)methyl)-1-(4-methoxybenzoyl)pyrrolidine-3-carboxylic acid]: > 5000 nM; for `COc1ccc(C(=O)N2CCC(COc3ccc(-c4ccc(C#N)cc4)cc3)(C(O)C(F)(F)F)C2)cc1` (stereo not shown) [I-12, 4′-((1-(4-methoxybenzoyl)-3-(2,2,2-trifluoro-1-hydroxyethyl)pyrrolidin-3-yl)methoxy)-[1,1′-biphenyl]-4-carbonitrile]: > 5000 nM; for `COc1ccc(C(=O)N2CCC(COc3ccc(-c4ccc(C#N)cc4)cc3)(C(O)(O)C(F)(F)F)C2)cc1` (stereo not shown) [I-13, 4′-((1-(4-methoxybenzoyl)-3-(2,2,2-trifluoro-1,1-dihydroxyethyl)pyrrolidin-3-yl)methoxy)-[1,1′-biphenyl]-4-carbonitrile]: > 5000 nM.
Regarding `COc1ccc(C(=O)N2CCC(COc3ccc(Br)cc3)(C(O)C(F)(F)F)C2)cc1` (stereo not shown) [I-14, (3-((4-bromophenoxy)methyl)-3-(2,2,2-trifluoro-1-hydroxyethyl)pyrrolidin-1-yl)(4-methoxyphenyl)methanone], for the setting “Table (IV)”, the IC50 is > 5000 nM.
Consider `Fc1ccc2c(ccn2-c2cc(Cl)c3c(c2)CN(Cc2cnc(OCC(F)(F)F)nc2)CCO3)c1` [II-1, 9-chloro-7-(5-fluoro-1H-indol-1-yl)-4-((2-(2,2,2-trifluoroethoxy)pyrimidin-5-yl)methyl)-2,3,4,5-tetrahydrobenzo [f][1,4]oxazepine], for which the IC50 (Table (V)) is > 5000 nM.
On to `Cn1cc(-c2ncc(CN3CCOc4c(Cl)cc(-n5ccc6cc(F)ccc65)cc4C3)cn2)cn1` [II-2, 9-chloro-7-(5-fluoro-1H-indol-1-yl)-4-((2-(1-methyl-1H-pyrazol-4-yl)pyrimidin-5-yl)methyl)-2,3,4,5-tetrahydrobenzo[f][1,4] oxazepine], for which the IC50 (Table (V)) was in the range of 1000 to 5000 nM.
Still for that read-out and setting: the same measure for `COc1ncc(CN2CCOc3c(Cl)cc(N4CCN(C)c5cc(F)ccc54)cc3C2)cn1` [II-3, 9-chloro-7-(6-fluoro-4-methyl-3,4-dihydroquinoxalin-1(2H)-yl)-4-((2-methoxypyrimidin-5-yl)methyl)-2,3,4,5-tetrahydrobenzo[f][1,4] oxazepine]: > 5000 nM; for `O=c1ncc(CN2CCOc3c(Cl)cc(-n4ccc5cc(F)c(F)cc54)cc3C2)c[nH]1` [II-4, 5-((9-chloro-7-(5,6-difluoro-1H-indol-1-yl)-2,3-dihydrobenzo[f][1,4]oxazepin-4(5H)-yl)methyl)pyrimidin-2(1H)-one]: 1000 to 5000 nM.
For the compound `Cc1ncc(CN2CCOc3c(Cl)cc(-n4ccc5cc(F)ccc54)cc3C2)cn1` [II-5, 9-chloro-7-(5-fluoro-1H-indol-1-yl)-4-((2-methylpyrimidin-5-yl)methyl)-2,3,4,5-tetrahydrobenzo[f][1,4] oxazepine], the 50% inhibitory concentration (IC50) (Table (V)) was 100 to 500 nM.
With `N#Cc1ncc(CN2CCOc3c(Cl)cc(-n4ccc5cc(F)ccc54)cc3C2)cn1` [II-6, 5-((9-chloro-7-(5-fluoro-1H-indol-1-yl)-2,3-dihydrobenzo[f][1,4]oxazepin-4(5H)-yl)methyl)pyrimidine-2-carbonitrile], where the note is “Table (V)”, the half-inhibitory concentration (IC50) was 500 to 1000 nM.
The compound `Fc1ccc2c(ccn2-c2cc(Cl)c3c(c2)CN(Cc2cnc(-n4cccn4)nc2)CCO3)c1` [II-7, 4-((2-(1H-pyrazol-1-yl)pyrimidin-5-yl)methyl)-9-chloro-7-(5-fluoro-1H-indol-1-yl)-2,3,4,5-tetrahydrobenzo[f][1,4] oxazepine] had a half-inhibitory concentration (IC50) (Table (V)) of 1000 to 5000 nM.
`Fc1ccc2c(ccn2-c2cc(Cl)c3c(c2)CN(Cc2cnc(C(F)(F)F)nc2)CCO3)c1` [II-8, 9-chloro-7-(5-fluoro-1H-indol-1-yl)-4-((2-(trifluoromethyl)pyrimidin-5-yl)methyl)-2,3,4,5-tetrahydrobenzo[f][1,4] oxazepine] yielded a half-maximal inhibitory concentration (IC50) (Table (V)) of 1000 to 5000 nM.
For the setting “Table (V)”, `Fc1ccc2c(ccn2-c2cc(Cl)c3c(c2)CN(Cc2cncnc2)CCO3)c1` [II-9, 9-chloro-7-(5-fluoro-1H-indol-1-yl)-4-(pyrimidin-5-ylmethyl)-2,3,4,5-tetrahydrobenzo[f][1,4] oxazepine] registered an IC50 of 100 to 500 nM.
For `COc1ncc(CN2CCOc3c(Cl)cc(-n4ccc5cc(C6CC6)ccc54)cc3C2)cn1` [II-10, 9-chloro-7-(5-cyclopropyl-1H-indol-1-yl)-4-((2-methoxypyrimidin-5-yl)methyl)-2,3,4,5-tetrahydrobenzo[f][1,4] oxazepine], the IC50 (Table (V)) was > 5000 nM.
In the case of `Nc1ncc(CN2CCOc3c(Cl)cc(-n4ccc5cc(F)ccc54)cc3C2)c(N)n1` [II-11, 5-((9-chloro-7-(5-fluoro-1H-indol-1-yl)-2,3-dihydrobenzo[f][1,4]oxazepin-4(5H)-yl)methyl)pyrimidin-2,4-diamine], the IC50 (Table (V)) was in the range of 100 to 500 nM.
Under “Table (V)”, `CS(=O)(=O)Nc1ncc(CN2CCOc3c(Cl)cc(-n4ccc5cc(F)ccc54)cc3C2)cn1` [II-13] showed an IC50 of 1000 to 5000 nM.
Same read-out and setting: the value for `CC(=O)Nc1ncc(CN2CCOc3c(Cl)cc(-n4ccc5cc(F)ccc54)cc3C2)cn1` [II-14, N-(5-((9-chloro-7-(5-fluoro-1H-indol-1-yl)-2,3-dihydrobenzo[f][1,4]oxazepin-4(5H)-yl)methyl)pyrimidin-2-yl)acetamide] was 1000 to 5000 nM; that for `O=C(O)c1ccc(CN2CCOc3c(Cl)cc(-n4ccc5cc(F)ccc54)cc3C2)cn1` [II-15, 5-((9-chloro-7-(5-fluoro-1H-indol-1-yl)-2,3-dihydrobenzo[f][1,4]oxazepin-4(5H)-yl)methyl)picolinic acid] was < 100 nM.
Still for that read-out and setting: the value for `Nc1ncc(CN2CCOc3c(Cl)cc(-n4ccc5cc(F)ccc54)cc3C2)c(=O)[nH]1` [II-16, 2-amino-5-((9-chloro-7-(5-fluoro-1H-indol-1-yl)-2,3-dihydrobenzo[f][1,4]oxazepin-4(5H)-yl)methyl)pyrimidin-4(3H)-one] was > 5000 nM; that for `N#CCc1ncc(CN2CCOc3c(Cl)cc(-n4ccc5cc(F)ccc54)cc3C2)cn1` [II-17, 2-(5-((9-chloro-7-(5-fluoro-1H-indol-1-yl)-2,3-dihydrobenzo[f][1,4]oxazepin-4(5H)-yl)methyl)pyrimidin-2-yl)acetonitrile] was 100 to 500 nM.
Where the note is “Table (V)”, `COC(=O)c1ccc(CN2CCOc3c(Cl)cc(-n4ccc5cc(F)ccc54)cc3C2)cn1` [II-19, methyl 5-((9-chloro-7-(5-fluoro-1H-indol-1-yl)-2,3-dihydrobenzo[f][1,4]oxazepin-4(5H)-yl)methyl)picolinate] yielded a 50% inhibitory concentration (IC50) of 100 to 500 nM.
Consider `COCCc1ncc(CN2CCOc3c(Cl)cc(-n4ccc5cc(F)ccc54)cc3C2)cn1` [II-20, 9-chloro-7-(5-fluoro-1H-indol-1-yl)-4-((2-(2-methoxyethyl)pyrimidin-5-yl)methyl)-2,3,4,5-tetrahydrobenzo[f][1,4]oxazepine], for which the IC50 (Table (V)) fell in the range of 500 to 1000 nM.
